Experiment [1] deals with Swiss albino mice. The experiment can be described thus: Plasma triglyceride and total cholesterol lowering activity in Swiss albino mice. The experiment is classed as in vivo, mouse. To be noted: results after 6 days. How it is done: c) Plasma triglyceride and total cholesterol lowering activity in Swiss albino mice Male Swiss albino mice (SAM) were obtained from NIN and housed in DRF animal house. All these animals are maintained under 12 hour light and dark cycle at 25±1° C. Animals are given standard laboratory chow (NIN, Hyderabad, India) and water, ad libitum. SAM of 20-25 g body weight range and Guinea pigs of 500-700 g body weight range are used (Oliver, P., Plancke, M. O., Marzin, D., Clavey, V., Sauzieres, J and Fruchart, J. C. Effects of fenofibrate, gemfibrozil and nicotinic acid on plasma lipoprotein levels in normal and hyperlipidemic mice. Atherosclerosis. 1988. 70: 107-114).
The test compounds can be administered orally to Swiss albino mice at 0.3 to 30 mg/kg/day dose for 6 days. Control mice are treated with vehicle (0.25% Carboxymethylcellulose; dose 10 ml/kg). The test compounds are administered orally to Guinea pigs at 0.3 to 30 mg/kg/day dose for 6 days. Control animals are treated with vehicle (0.25% Carboxymethylcellulose; dose 5 ml/kg). The blood samples can bc collected in fed state 1 hour after drug administration on 0 and 6 day of treatment. The blood can be collected from the retro-orbital sinus through heparinised capillary in EDTA containing tubes. After centrifugation, plasma sample was separated for triglyceride (Wieland, O. Methods of Enzymatic analysis. Bergermeyer, H. O., Ed., 1963. 211-214; Trinder, P. Ann. Clin. Biochem. 1969. 6: 24-27). Measurement of plasma triglyceride is done using commercial kits (Dr. Reddy's Diagnostic Division, Hyderabad, India).
(§1) 1. Percent reduction in Blood sugar/triglycerides/total cholesterol will be calculated according to the formula:
(§2) [formula] • OC=Zero day control group value • OT=Zero day treated group value • TC=Test day control group value • TT=Test day treated group value

Experiment [2] has as its system cholesterol fed Syrian Hamsters. Put plainly: Body weight reducing effect in cholesterol fed hamsters. The experiment is classed as in vivo, hamster. To be noted: 3 mg/kg oral. Here is the method:
d) Body weight reducing effect in cholesterol fed hamsters: Male Syrian Hamsters are procured from NIN, Hyderabad, India. Animals are housed at DRF animal house under 12 hour light and dark cycle at 25±1° C. with free access to food and water. Animals are maintained with 1% cholesterol containing standard laboratory chow (NIN) from the day of treatment.
The test compounds can be administered orally at 1 to 30 mg/kg/day dose for 15 days. Control group animals are treated with vehicle (Mill Q water, dose 10 ml/kg/day). Body weights are measured on every 3rd day.
as §1, §2

Experiment [3] deals with C57BL/KsJ-db/db mice. Put plainly: Efficacy in genetic models: blood sugar and triglyceride lowering in db/db mice. The settings on record: 3 mg/kg oral, results after 6 days. The experiment is classed as in vivo, mouse.
Source text: a) Efficacy in Genetic Models Mutation in colonies of laboratory animals and different sensitivities to dietary regimens has made the development of animal models with non-insulin dependent diabetes and hyperlipidemia associated with obesity and insulin resistance possible. Genetic models such as db/db and ob/ob (Diabetes, (1982) 31(1): 1-6) mice and zucker fa/fa rats have been developed by the various laboratories for understanding the pathophysiology of disease and testing the efficacy of new antidiabetic compounds (Diabetes, (1983) 32: 830-838; Annu. Rep. Sankyo Res. Lab. (1994). 46: 1-57). The homozygous animals, C57 BL/KsJ-db/db mice developed by Jackson Laboratory, US, are obese, hyperglycemic, hyperinsulinemic and insulin resistant (J. Clin. Invest., (1990) 85: 962-967), whereas heterozygous are lean and normoglycemic. In db/db model, mouse progressively develops insulinopenia with age, a feature commonly observed in late stages of human type II diabetes when blood sugar levels are insufficiently controlled. The state of pancreas and its course vary according to the models. Since this model resembles that of type II diabetes mellitus, the compounds of the present invention will be tested for blood sugar and triglycerides lowering activities.
Male C57BL/KsJ-db/db mice of 8 to 14 weeks age, having body weight range of 35 to 60 grams, bred at Dr. Reddy's Research Foundation (DRF) animal house, were used in the experiment. The mice are provided with standard feed (National Institute of Nutrition (NIN), Hyderabad, India) and acidified water, ad libitum. The animals having more than 350 mg/dl blood sugar will be used for testing. The number of animals in each group will be 4.
Test compounds are suspended on 0.25% carboxymethyl cellulose and administered to test group at a dose of 0.1 mg to 30 mg/kg through oral gavage daily for 6 days. The control group receives vehicle (dose 10 ml/kg). On 6th day the blood samples will be collected one hour after administration of test compounds/vehicle for assessing the biological activity.
The random blood sugar and triglyceride levels can be measured by collecting blood (100 μl) through orbital sinus, using heparinised capillary in tubes containing EDTA which was centrifuged to obtain plasma. The plasma glucose and triglyceride levels can be measured spectrometrically, by glucose oxidase and glycerol-3-PO4 oxidase/peroxidase enzyme (Dr. Reddy's Lab. Diagnostic Division Kits, Hyderabad, India) methods respectively.
The blood sugar and triglycerides lowering activities of the test compound are calculated according to the formula.
as §1, §2

The record followed here is patent US7598293B2, “Compounds and their use in medicine, process for their preparation and pharmaceutical compositions containing them” (Dr. Reddy's Laboratories, Inc., priority 2001, dated 2009).

For “2-Ethoxy-3-[4-(4-methanesulfonyloxybenzylamino)phenyl]propionic acid arginine salt [Example 38]”, the “Triglyceride Lowering (%)” value in experiment [1] (1 mg/kg oral) is reported as 41%.
Turning to `CCOC(Cc1ccc(NCCCc2ccc(N(C(=O)OC(C)(C)C)S(C)(=O)=O)cc2)cc1)C(=O)O` (centres unmarked) [Example 30], the “Triglyceride Lowering (%)” value in experiment [1] (3 mg/kg oral) was found to be 41%.
Consider `CCOC(Cc1ccc(NC(=O)OCCCc2ccc(OS(C)(=O)=O)cc2)cc1)C(=O)O` (centres unmarked) [Example 16, 2-Ethoxy-3-[4-{3-(4-methanesulfonyloxyphenyl)propyloxycarbonylamino}phenyl]propionic acid], for which, in experiment [2], the “Reduction in Body weight (%)” value is given as 19%, the “Reduction in Total Cholesterol (%)” value came to 63% and the “Reduction in Triglyceride (%)” value was determined as 77%. Also, in experiment [3], the “Reduction in Blood Glucose Level (%)” value came to 15% and the “Triglyceride Lowering (%)” value was determined as 39%.
In the case of `CCOC(Cc1ccc(NCCCc2ccc(OS(=O)(=O)c3ccc(C)cc3)cc2)cc1)C(=O)O` (centres unmarked) [Example 19, 2-ethoxy-3-[4-{3-(4-(toluene-4-sulfonyloxy)phenyl)propylamino}phenyl]propionate], in experiment [1] (1 mg/kg oral), the “Triglyceride Lowering (%)” value was 39%.
